Results as given in patent US11008355B2, “Crystal of 3'-sialyllactose sodium salt n-hydrate, and process for producing same” (KYOWA HAKKO BIO CO., LTD., priority 2016, dated 2021).
Read-outs that look alike come from different tables or passages of the source.

Key:
[1] = pH of aqueous solution of the crystal; assay type: physicochemical; settings: aqueous solution at 50 g/L as a crystal of 3SL sodium salt 8.0-hydrate
Description: As for the pH, an aqueous solution at 50 g/L as a crystal of 3SL sodium salt 8.0-hydrate was measured. The melting point was measured using Melting Point M-565 (manufactured by BUCHI Corporation) under a condition of 50° C. to 200° C. and 0.5° C./min according to the instruction book.

[2] = 30° C., relative humidity of 80%; for Change in weight with lapse of time (in words): up to 8 hours
Description: Storage conditions: 30° C., relative humidity of 80% (apparatus: THE051FA, manufactured by Advantec Toyo Kaisha Ltd.)
Measurement method: After about 100 mg of a sample was weighed with a precision balance, the sample was packed in a glass container and stored under the above-mentioned conditions. Thereafter, the sample was weighed again, and the weight change ratio was calculated.
Incidentally, the weight of the sample at each elapsed time was measured by assuming the weight of each sample at the start of the test to be 100%.

[3] = 50° C., relative humidity of 50%, HPLC, wt %
Description: Storage conditions: 50° C., relative humidity of 50% (adjusted with saturated sodium bromide solution)
Measurement method: About 5 g of a sample was weighed with a precision balance, the sample was packed in a glass container, and the amount of impurities (glucose, lactose, sialic acid) after heating was evaluated by HPLC (“%” in Table 5 represents “wt %”).

SMILES	pH [1]	Change in weight with lapse of time (in words) [2]	Weight of sample (weight at start of test = 100%) ([2]; elapsed time 0 hours)	Weight of sample (weight at start of test = 100%) ([2]; elapsed time 0.5 hours)	Weight of sample (weight at start of test = 100%) ([2]; elapsed time 2.5 hours)	Weight of sample (weight at start of test = 100%) ([2]; elapsed time 8 hours)	Glucose (impurity amount) ([3]; elapsed days 0)	Lactose (impurity amount) ([3]; elapsed days 0)	Sialic acid (impurity amount) ([3]; elapsed days 0)	Glucose (impurity amount) ([3]; elapsed days 2)	Lactose (impurity amount) ([3]; elapsed days 2)	Sialic acid (impurity amount) ([3]; elapsed days 2)	Glucose (impurity amount) ([3]; elapsed days 4)	Lactose (impurity amount) ([3]; elapsed days 4)	Sialic acid (impurity amount) ([3]; elapsed days 4)
CC(=O)NC1C(O)CC(OC2C(O)C(CO)OC(OC3C(CO)OC(O)C(O)C3O)C2O)(C(=O)[O-])OC1C(O)C(O)CO.O.O.O.O.O.O.O.O.[Na+] (centres unmarked) [Example 2, 3SL sodium salt 8.0-hydrate]	6.00	almost no change in weight	100.0%	100.2%	99.9%	99.9%	0.03%	0.01%	0.08%	0.04%	0.01%	0.10%	0.04%	0.02%	0.09%
CC(=O)N[C@H]1[C@H]([C@H](O)[C@H](O)CO)O[C@@](O[C@H]2[C@@H](O)[C@@H](CO)O[C@@H](O[C@H]3[C@H](O)[C@@H](O)C(O)O[C@@H]3CO)[C@@H]2O)(C(=O)[O-])C[C@@H]1O.[Na+] (some centres unmarked) [Freeze-dried product, amorphous 3SL sodium, reference compound]	–	–	–	–	–	–	0.11%	0.02%	0.14%	0.14%	0.03%	0.21%	0.16%	0.07%	0.26%
CC(=O)N[C@H]1[C@H]([C@H](O)[C@H](O)CO)O[C@@](O[C@H]2[C@@H](O)[C@@H](CO)O[C@@H](O[C@H]3[C@H](O)[C@@H](O)C(O)O[C@@H]3CO)[C@@H]2O)(C(=O)[O-])C[C@@H]1O.[Na+] (some centres unmarked) [amorphous, 3SL sodium reagent, reference compound]	–	increase in weight	100.0%	123.1%	130.5%	130.4%	–	–	–	–	–	–	–	–	–
